Experimental data reported in the NIST ThermoML archive (doi:10.1016/j.tca.2016.09.005).
Numbers after ± are expanded uncertainties.

Tests used:
[1] = xn = mol fraction of the nth substance listed; settings: 100 kPa, Liquid, x1 = 1; for mass density: Vibrating tube method; for speed of sound: Frequency=3 MHz, Sing-around technique in a fixed-path interferometer
[2] = Liquid; for vapor or sublimation pressure: Closed cell (Static) method; for speed of sound / mass density: 100 kPa; for speed of sound: Frequency=3 MHz, Sing-around technique in a fixed-path interferometer; for mass density: Vibrating tube method
[3] = refractive index (Na D-line) (dimensionless); settings: 293.15 K; 101.33 kPa; Liquid; Standard Abbe refractometry

O [water] + OCCCO
[1]
Settings | mass density [kg/m3] | speed of sound [m/s]
283.15 K | 999.68 ± 0.9 | –
313.15 K | – | 1529.2 ± 1.7

O [water]
[2]
Settings | vapor or sublimation pressure [kPa]
273.15 K | 0.593 ± 0.019
283.15 K | 1.21 ± 0.038
293.15 K | 2.328 ± 0.071
303.15 K | 4.251 ± 0.13
313.15 K | 7.411 ± 0.22
323.15 K | 12.4 ± 0.37
333.15 K | 20 ± 0.6
343.15 K | 31.21 ± 0.94
353.15 K | 47.3 ± 1.4
363.15 K | 69.77 ± 2.1

Settings | refractive index
[3] | 1.333 ± 0.0009

CCO [ethanol]
[2]
Settings | mass density [kg/m3] | speed of sound [m/s]
283.15 K | 798.22 ± 0.93 | 1196.8 ± 1.9
293.15 K | 789.7 ± 0.93 | 1162.3 ± 1.9
303.15 K | 781.09 ± 0.93 | 1128.2 ± 1.9
313.15 K | 772.34 ± 0.93 | 1094.6 ± 1.9

Settings | refractive index
[3] | 1.362 ± 0.001

CCO [ethanol] + OCCCO
[1]
Settings | mass density [kg/m3] | speed of sound [m/s]
283.15 K | 798.22 ± 0.93 | 1196.8 ± 1.9
293.15 K | 789.7 ± 0.93 | 1162.3 ± 1.9
303.15 K | 781.09 ± 0.93 | 1128.2 ± 1.9
313.15 K | 772.34 ± 0.93 | 1094.6 ± 1.9

OCCCO [propan-1,3-diol]
[2]
Settings | mass density [kg/m3] | speed of sound [m/s]
283.15 K | 1058.85 ± 1.3 | 1659.5 ± 2.6
293.15 K | 1052.61 ± 1.2 | 1636.3 ± 2.6
303.15 K | 1046.36 ± 1.2 | 1613.6 ± 2.6
313.15 K | 1040.07 ± 1.2 | 1591.1 ± 2.6

Settings | refractive index
[3] | 1.4393 ± 0.001

CO [methanol]
[2]
Settings | mass density [kg/m3] | speed of sound [m/s]
283.15 K | 800.67 ± 0.91 | 1153.3 ± 1.7
293.15 K | 791.28 ± 0.91 | 1119.6 ± 1.7
303.15 K | 781.84 ± 0.91 | 1086.6 ± 1.7
313.15 K | 772.3 ± 0.91 | 1054.2 ± 1.7

Settings | refractive index
[3] | 1.3285 ± 0.0009

CO [methanol] + OCCCO
[1]
Settings | mass density [kg/m3] | speed of sound [m/s]
283.15 K | 800.67 ± 0.91 | 1153.3 ± 1.7
293.15 K | 791.28 ± 0.91 | 1119.6 ± 1.7
303.15 K | 781.84 ± 0.91 | 1086.6 ± 1.7
313.15 K | 772.3 ± 0.91 | 1054.2 ± 1.7
